Reference: patent US20060223996A1, “IL-12 modulatory compounds” (Synta Pharmaceuticals Corp., priority 2004, published 2006)

system: IL-12; assay: Human in vitro assay: inhibition of IL-12 production in IFNγ/LPS- or IFNγ/SAC-stimulated human PBMC or THP-1 cells (ELISA); format: cell-based; conditions: read-out: IC50 Range (representative in vitro IC50 data)
Excerpt: The biological activities of a heterocyclic compound can be evaluated by a number of cell-based assays. One of such assays can be conducted using cells from human peripheral blood mononuclear cells (PBMC) or human monocytic cell line (THP-1). The cells are stimulated with a combination of human interferon-γ (IFNγ) and lipopolysaccharide or a combination of IFNγ and Staphylococcus aureus Cowan I in the presence of a test compound. The level of inhibition of IL-12 production can be measured by determining the amount of p70 by using a sandwich ELISA assay with anti-human IL-12 antibodies. IC50 of the test compound can then be determined. Specifically, PBMC or THP-1 cells are incubated with the test compound. Cell viability was assessed using the bioreduction of MTS [3-(4,5-dimethylthiazol-2-yl)-5-(3-carboxymethoxyphenyl)-2-(4-sulfophenyl)-2H-tetrazolium](Promega, Madison, Wis.).
Human In Vitro Assay. Human PBMC were isolated by centrifugation using Ficoll-Paque (Pharmacia Biotech, Uppsala, Sweden) and prepared in RPMI medium supplemented with 10% fetal calf serum (FCS), 100 U/mL penicillin, and 100 μg/mL streptomycin. PBMC were plated in wells of a 96-well plate at a concentration of 5×10^5 cells/well, and primed by adding IFNγ (30 U/mL) for 22 h and stimulated by adding LPS (1 μg/mL), or by adding IFNγ (100 U/mL) and then stimulated by adding SAC (0.01%). A test pyrimidine compound was dissolved in DMSO, and added to wells of the 96-well plate. The final DMSO concentration was adjusted to 0.25% in all cultures, including the compound-free control. Human THP-1 cells were plated in wells, primed by adding IFNγ (100 U/mL) for 22 h and stimulated by adding SAC (0.025%) in the presence of different concentrations of the pyrimidine compound. Cell-free supernatants were taken 18 h later for measurement of cytokines. Cell viability was assessed using the bioreduction of MTS. Cell survival was estimated by determining the ratio of the absorbance in compound-treated groups versus compound-free control.
The supernatant was assayed for the amount of IL-12p40, IL-12p70, or IL-10 by using a sandwich ELISA with anti-human antibodies, i.e., a Human IL-12 p40 ELISA kit from R&D Systems (Berkeley, Calif.), and a Human IL-12 p70 or IL-10 ELISA kit from Endogen (Cambridge, Mass.). Assays were based on the manufacturer's instructions.
The biological activities of pyrimidine compounds were tested on human PBMC or THP-1 cells.

| Compound | IC50 [nM] |
| --- | --- |
| Cc1[nH]c2ccc(NC(=O)c3cc(OCCC#N)nc(N4CCOCC4)n3)cc2c1C [Compound 250, 6-(2-cyanoethoxy)-N-(2,3-dimethyl-1H-indol-5-yl)-2-morpholinopyrimidine-4-carboxamide] | < 1000 |
| CCOC(=O)C1CCN(c2cc(C(=O)Nc3ccc4[nH]c(C)c(C)c4c3)nc(N3CCOCC3)c2)CC1 [Compound 176, 2′-(2,3-Dimethyl-1H-indol-5-ylcarbamoyl)-6′-morpholin-4-yl-3,4,5,6-tetrahydro-2H-[1,4′]bipyridinyl-4-carboxylic acid ethyl ester] | < 1000 |
| COCCN(C)c1cc(C(=O)Nc2cccc(N(C)C)c2)nc(N2CCOCC2)n1 [Compound 302, 6-[(2-Methoxy-ethyl)-methyl-amino]-2-morpholin-4-yl-pyrimidine-4-carboxylic acid (3-dimethylamino-phenyl)-amide] | < 1000 |
| COc1cccc(NC(=O)c2cc(OCCN3CCOCC3)nc(N3CCOCC3)n2)c1 [Compound 279, 2-Morpholin-4-yl-6-(2-morpholin-4-yl-ethoxy)-pyrimidine-4-carboxylic acid (3-methoxy-phenyl)-amide] | ≥ 1000 |
| Cc1[nH]c2ccc(NC(=O)c3cc(NCC(=O)N4CCc5ccccc5C4)nc(N4CCOCC4)n3)cc2c1C [Compound 103, 6-[2-(3,4-Dihydro-1H-isoquinolin-2-yl)-2-oxo-ethylamino]-2-morpholin-4-yl-pyrimidine-4-carboxylic acid (2,3-dimethyl-1H-indol-5-yl)-amide] | < 1000 |
| O=C1Cc2cc(NC(=O)c3cc(OCCN4CCOCC4)nc(N4CCOCC4)n3)ccc2N1 [Compound 197, 2-morpholino-6-(2-morpholinoethoxy)-N-(2-oxoindolin-5-yl)pyrimidine-4-carboxamide] | ≥ 1000 |
| Cc1cccc(OC(=O)Nc2cc(OCCc3ccccn3)nc(N3CCOCC3)n2)c1 [Compound 83, [2-Morpholin-4-yl-6-(2-pyridin-2-yl-ethoxy)-pyrimidin-4-yl]-carbamic acid m-tolyl ester] | ≥ 1000 |
| CCc1c[nH]c2ccc(NC(=O)c3cc(N4CCCCC4)nc(N4CCOCC4)n3)cc12 [Compound 179, 2-Morpholin-4-yl-6-piperidin-1-yl-pyrimidine-4-carboxylic acid (3-ethyl-1H-indol-5-yl)-amide] | < 1000 |
| Cc1cc(C(=O)Nc2nc(OCCc3ccccn3)cc(N3CCOCC3)n2)no1 [Compound 77, 5-Methyl-isoxazole-3-carboxylic acid-[4-morpholin-4-yl-6-(2-pyridin-2-yl-ethoxy)-pyrimidin-2-yl]-amide] | ≥ 1000 |
| Cc1cccc(NNC(=O)c2cc(N3CCOCC3)nc(OCCc3ccccn3)n2)c1 [Compound 78, 6-Morpholin-4-yl-2-(2-pyridin-2-yl-ethoxy)-pyrimidine-4-carboxylic acid N′-m-tolyl-hydrazide] | < 1000 |
| Cc1[nH]c2ccc(NCc3cc(OCCc4ccccn4)nc(N4CCOCC4)n3)cc2c1C [Compound 84, (2,3-Dimethyl-1H-indol-5-yl)-[2-morpholin-4-yl-6-(2-pyridin-2-yl-ethoxy)-pyrimidin-4-ylmethyl]-amine] | < 1000 |
| COCCN(C)c1cc(C(=O)Nc2ccc3cnn(C)c3c2)nc(N2CCOCC2)n1 [Compound 217, 6-((2-methoxyethyl)(methyl)amino)-N-(1-methyl-1H-indazol-6-yl)-2-morpholinopyrimidine-4-carboxamide] | ≥ 1000 |
| COCCN(C)c1cc(C(=O)Nc2cccc(-c3csc(C)n3)c2)nc(N2CCOCC2)n1 [Compound 245, 6-[(2-Methoxy-ethyl)-methyl-amino]-2-morpholin-4-yl-pyrimidine-4-carboxylic acid [3-(2-methyl-thiazol-4-yl)-phenyl]-amide] | < 1000 |

Next, values leading:

| IC50 [nM] | Compound |
| --- | --- |
| ≥ 1000 | O=C(Nc1ccc(Cl)c(Cl)c1)Nc1cc(N2CCOCC2)nc(OCCN2CCOCC2)n1 [Compound 119, 1-(3,4-Dichloro-phenyl)-3-[6-morpholin-4-yl-2-(2-morpholin-4-yl-ethoxy)-pyrimidin-4-yl]-urea] |
| < 1000 | Cc1[nH]c2ccc(NC(=O)c3cc(OCCN4CCOC4=O)nc(N4CCOCC4)n3)cc2c1C [Compound 21, 2-Morpholin-4-yl-6-[2-(2-oxo-oxazolidin-3-yl)-ethoxy]-pyrimidine-4-carboxylic acid (2,3-dimethyl-1H-indol-5-yl)-amide] |
| < 1000 | CN(CCO)c1cc(NC(=O)Nc2ccc3[nH]c4c(c3c2)CCCC4)nc(N2CCOCC2)n1 [Compound 326, 1-{6-[(2-Hydroxy-ethyl)-methyl-amino]-2-morpholin-4-yl-pyrimidin-4-yl}-3-(6,7,8,9-tetrahydro-5H-carbazol-3-yl)-urea] |
| < 1000 | Cc1[nH]c2ccc(NC(=O)c3cc(NCC(=O)N4CCN(C)CC4)nc(N4CCOCC4)n3)cc2c1C [Compound 106, 6-[2-(4-Methyl-piperazin-1-yl)-2-oxo-ethylamino]-2-morpholin-4-yl-pyrimidine-4-carboxylic acid (2,3-dimethyl-1H-indol-5-yl)-amide] |
| < 1000 | Cc1[nH]c2ccc(NC(=O)c3cc(N(C)CC(N)=O)nc(N4CCOCC4)n3)cc2c1C [Compound 117, 6-(Carbamoylmethyl-methyl-amino)-2-morpholin-4-yl-pyrimidine-4-carboxylic acid (2,3-dimethyl-1H-indol-5-yl)-amide] |
| ≥ 1000 | COCCN(C)c1cc(C(=O)Nc2cccc(-c3nncn3C)c2)nc(N2CCOCC2)n1 [Compound 208, 6-((2-methoxyethyl)(methyl)amino)-N-(3-(4-methyl-4H-1,2,4-triazol-3-yl)phenyl)-2-morpholinopyrimidine-4-carboxamide] |
| < 1000 | COCCN(C)c1cc(C(=O)Nc2cccc(C(C)C)c2)nc(N2CCOCC2)n1 [Compound 205, N-(3-isopropylphenyl)-6-((2-methoxyethyl)(methyl)amino)-2-morpholinopyrimidine-4-carboxamide] |
| < 1000 | CCc1c(C)[nH]c2ccc(NC(=O)c3cc(N4CCC5(CC4)OCCO5)nc(N4CCOCC4)n3)cc12 [Compound 180, 6-(1,4-Dioxa-8-aza-spiro[4.5]dec-8-yl)-2-morpholin-4-yl-pyrimidine-4-carboxylic acid (3-ethyl-2-methyl-1H-indol-5-yl)-amide] |
| ≥ 1000 | COCCN(C)c1cc(C(=O)Nc2ccc3nc(C)c(C)nc3c2)nc(N2CCOCC2)n1 [Compound 241, 6-[(2-Methoxy-ethyl)-methyl-amino]-2-morpholin-4-yl-pyrimidine-4-carboxylic acid (2,3-dimethyl-quinoxalin-6-yl)-amide] |
| ≥ 1000 | COCCN(C)c1cc(C(=O)Nc2cc(C)cc(C)n2)nc(N2CCOCC2)n1 [Compound 238, 6-[(2-Methoxy-ethyl)-methyl-amino]-2-morpholin-4-yl-pyrimidine-4-carboxylic acid (4,6-dimethyl-pyridin-2-yl)-amide] |
| ≥ 1000 | Cc1[nH]c2ccc(NC(=O)c3cc(N4CCOCC4)nc(OCCc4ccccn4)n3)cc2c1C [Compound 63, 6-Morpholin-4-yl-2-(2-pyridin-2-yl-ethoxy)-pyrimidine-4-carboxylic acid (2,3-dimethyl-1H-indol-5-yl)-amide] |
| < 1000 | COCCN(CCOC)c1cc(C(=O)Nc2ccc3[nH]c(C)c(C)c3c2)nc(N2CCOCC2)n1 [Compound 258, 6-(bis(2-methoxyethyl)amino)-N-(2,3-dimethyl-1H-indol-5-yl)-2-morpholinopyrimidine-4-carboxamide] |
| ≥ 1000 | Cc1cccc(NC(=O)c2cc(OCCN3CCOCC3)nc(N3CCOCC3)n2)c1 [Compound 56, 2-Morpholin-4-yl-6-(2-morpholin-4-yl-ethoxy)-pyrimidine-4-carboxylic acid m-tolylamide] |
| < 1000 | CN1CCc2ccc(NC(=O)c3cc(OCCN4CCOCC4)nc(N4CCOCC4)n3)cc21 [Compound 214, N-(1-methylindolin-6-yl)-2-morpholino-6-(2-morpholinoethoxy)pyrimidine-4-carboxamide] |
| ≥ 1000 | O=C(Nc1ccc2ccccc2c1)Nc1cc(N2CCOCC2)nc(OCCN2CCOCC2)n1 [Compound 124, 1-[6-Morpholin-4-yl-2-(2-morpholin-4-yl-ethoxy)-pyrimidin-4-yl]-3-naphthalen-2-yl-urea] |
| < 1000 | COCCN(C)c1cc(C(=O)Nc2ccc3[nH]c(C)c(C)c3c2)nc(N2CCOCC2)c1 [Compound 158, 4-[(2-Methoxy-ethyl)-methyl-amino]-6-morpholin-4-yl-pyridine-2-carboxylic acid (2,3-dimethyl-1H-indol-5-yl)-amide] |
